We go through 23 compounds from patent publication US12037346B2, “Amino-substituted heteroaryls for treating cancers with EGFR mutations” (Nuvalent, Inc., priority 2021, dated 2024).

Holding throughout (assay type): cell-based
For test [1], the system named is A431 cells (amplification of the wild-type EGFR gene), phospho-ERK Thr202/Tyr204. Nature of the test: Cellular phosphorylation assay, pERK (phospho-ERK Thr202/Tyr204 AlphaLISA) in A431. The following applies: Homo sapiens, A-431, compound incubated for 5 hours. In short, it runs like this: (§1)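 Cells (12,500/well) plated 1 day, then exposed to 3-fold compound dilutions for 5 h; for pEGFR only, A431 stimulated with EGF 30 ng/mL for 15 min. Lysates read by AlphaLISA for pHER2 Tyr1221/1222, pEGFR Tyr1068 or pERK Thr202/Tyr204; IC50 from percent inhibition by four-parameter logistic fit.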

The target of test [2] is T1, wild-type EGFR (A431 cells) (Homo sapiens, UniProt P00533).
T1 construct: A431 bears amplification of the wild-type EGFR gene; endogenous in cells; host or cells: A431
T1 sequence (P00533 25-1210): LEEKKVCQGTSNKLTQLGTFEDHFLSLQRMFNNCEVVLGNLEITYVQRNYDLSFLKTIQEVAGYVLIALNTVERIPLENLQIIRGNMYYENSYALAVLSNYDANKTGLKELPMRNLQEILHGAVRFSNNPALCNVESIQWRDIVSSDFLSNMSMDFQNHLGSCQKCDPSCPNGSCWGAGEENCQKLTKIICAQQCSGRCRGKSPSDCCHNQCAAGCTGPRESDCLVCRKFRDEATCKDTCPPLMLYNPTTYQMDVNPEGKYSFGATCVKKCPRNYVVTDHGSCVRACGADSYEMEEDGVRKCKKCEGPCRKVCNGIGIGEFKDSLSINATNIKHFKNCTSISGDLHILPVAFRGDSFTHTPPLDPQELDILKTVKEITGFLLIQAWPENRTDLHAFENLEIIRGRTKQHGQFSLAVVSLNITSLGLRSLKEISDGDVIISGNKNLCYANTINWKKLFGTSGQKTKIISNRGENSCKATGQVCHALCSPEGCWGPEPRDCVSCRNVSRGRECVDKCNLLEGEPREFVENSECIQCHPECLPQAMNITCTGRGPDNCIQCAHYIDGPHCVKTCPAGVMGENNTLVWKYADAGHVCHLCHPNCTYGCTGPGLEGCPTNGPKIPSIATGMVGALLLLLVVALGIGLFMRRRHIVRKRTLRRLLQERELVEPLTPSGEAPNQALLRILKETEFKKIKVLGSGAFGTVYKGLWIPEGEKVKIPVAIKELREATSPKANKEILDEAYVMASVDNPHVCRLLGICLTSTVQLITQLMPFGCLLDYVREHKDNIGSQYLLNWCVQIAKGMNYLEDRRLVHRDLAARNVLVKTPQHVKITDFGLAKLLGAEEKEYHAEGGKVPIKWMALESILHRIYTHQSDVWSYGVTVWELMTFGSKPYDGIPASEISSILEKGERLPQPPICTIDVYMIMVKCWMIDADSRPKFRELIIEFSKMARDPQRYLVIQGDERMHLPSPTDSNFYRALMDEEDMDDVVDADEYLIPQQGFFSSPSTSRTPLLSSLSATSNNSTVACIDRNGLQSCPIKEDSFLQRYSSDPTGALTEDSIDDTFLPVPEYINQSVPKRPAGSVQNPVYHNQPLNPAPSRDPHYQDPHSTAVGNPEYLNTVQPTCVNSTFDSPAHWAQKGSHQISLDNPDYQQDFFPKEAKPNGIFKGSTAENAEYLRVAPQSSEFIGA
Nature of the test: Cellular phosphorylation assay, pEGFR (phospho-EGFR Tyr1068 AlphaLISA) in A431. Particulars: compound incubated for 5 hours, EGF (30 ng/mL) for 15 minutes. In outline: as §1
On the technique in general: Alpha assays give light when donor and acceptor beads are brought close together.

Test [3] deals with T2, HER2-A775_G776insV-G776C (NCI-H1781 cells) (Homo sapiens, UniProt P04626, G776C/INS775V).
T2 construct: NCI-H1781 is a HER2 exon20 insertion cell line bearing HER2-A775_G776insV-G776C; endogenous in cells; host or cells: NCI-H1781
T2 sequence (P04626 with tags, fused parts or gaps INS775V/G776C): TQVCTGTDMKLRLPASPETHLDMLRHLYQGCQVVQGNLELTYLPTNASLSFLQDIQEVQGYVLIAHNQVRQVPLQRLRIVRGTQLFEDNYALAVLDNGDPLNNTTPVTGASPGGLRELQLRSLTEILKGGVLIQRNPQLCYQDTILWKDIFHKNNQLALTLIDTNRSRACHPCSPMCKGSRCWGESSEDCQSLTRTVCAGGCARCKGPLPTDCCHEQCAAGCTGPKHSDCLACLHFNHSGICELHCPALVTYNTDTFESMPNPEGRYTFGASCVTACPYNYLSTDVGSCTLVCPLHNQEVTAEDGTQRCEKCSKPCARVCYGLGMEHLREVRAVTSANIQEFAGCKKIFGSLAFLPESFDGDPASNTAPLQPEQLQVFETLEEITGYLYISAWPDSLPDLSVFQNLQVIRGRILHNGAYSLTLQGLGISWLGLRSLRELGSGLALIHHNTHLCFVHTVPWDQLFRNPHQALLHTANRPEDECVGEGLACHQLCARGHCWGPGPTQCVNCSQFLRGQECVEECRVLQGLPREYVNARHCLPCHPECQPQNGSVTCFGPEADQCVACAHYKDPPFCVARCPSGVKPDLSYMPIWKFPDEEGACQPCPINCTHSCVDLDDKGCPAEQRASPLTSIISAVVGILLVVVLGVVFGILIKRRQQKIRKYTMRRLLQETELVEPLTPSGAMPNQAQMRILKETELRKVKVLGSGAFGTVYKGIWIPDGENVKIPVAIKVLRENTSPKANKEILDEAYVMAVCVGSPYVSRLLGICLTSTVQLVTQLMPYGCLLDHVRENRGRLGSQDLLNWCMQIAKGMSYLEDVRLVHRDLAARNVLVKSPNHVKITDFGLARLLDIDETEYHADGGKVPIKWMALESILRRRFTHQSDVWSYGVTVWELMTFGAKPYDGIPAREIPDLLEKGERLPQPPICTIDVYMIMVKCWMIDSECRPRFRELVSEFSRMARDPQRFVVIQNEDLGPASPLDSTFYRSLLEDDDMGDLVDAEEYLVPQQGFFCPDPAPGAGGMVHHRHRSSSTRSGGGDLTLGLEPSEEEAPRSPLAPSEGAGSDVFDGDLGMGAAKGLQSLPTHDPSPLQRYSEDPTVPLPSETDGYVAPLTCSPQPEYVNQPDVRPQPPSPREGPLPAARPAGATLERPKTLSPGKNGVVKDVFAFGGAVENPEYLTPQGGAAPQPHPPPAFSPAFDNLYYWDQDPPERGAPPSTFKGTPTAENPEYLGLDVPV
Description: Cellular phosphorylation assay, pHER2 (phospho-ErbB2 Tyr1221/1222 AlphaLISA) in NCI-H1781. The following applies: compound incubated for 5 hours. As to the method: (§2) Besides Ba/F3s, two commercially available cell lines were also used. NCI-H1781 is a HER2 exon20 insertion cell line bearing HER2-A775_G776insV-G776C. A431 bears amplification of the wild-type EGFR gene.
Ba/F3 cells were plated at 50,000 cells/well (40 μL), or NCI-H1781 cells or A431 cells were plated at 12,500 cells/well (40 μL), in a 384-well plate for 1 day. Test compounds (40 nL) were then added in a 3-fold dilution series using the TECAN EV0200 liquid handler and incubated for 5 hours. Only for pEGFR analysis in A431, the cells were briefly stimulated with EGF (30 ng/mL) for 15 minutes. Media were removed using Apricot Designs. Phosphoproteins were analyzed using the phospho-EGFR Tyr1068 AlphaLISA kit (“pEGFR”; PerkinElmer #ALSU-PEGFR-B10K;) phospho-ERK Thr202/Tyr204 AlphaLISA kit (“pERK”; PerkinElmer #ALSU-PERK-A10K) or the phospho-ErbB2 Tyr1221/1222 AlphaLISA kit (“pHER2”; PerkinElmer #ALSU-PEB2-A10K;) according to the manufacturer's instructions. Briefly, cells were lysed with lysis buffer (10 μL) containing protease-inhibitor and phosphatase-inhibitor cocktails. The lysates were transferred into a new optical plate, incubated with the acceptor mix (5 μL) for 1.5-2 hours at room temperature in darkness, and then mixed with the donor mix (5 μL) overnight in darkness. Fluorescence was measured on a plate reader using the appropriate AlphaLISA settings. Half-maximal inhibitory concentration (IC50) was calculated from percent inhibition and inhibitor concentration using four-parameter logistic regression.
HER2 is phosphorylated when activated. Therefore, phospho-HER2 indicates HER2 activity in the cells.

The target of test [4] is Ba/F3 HER2-YVMA cells (HER2-A775_G776insYVMA) (Homo sapiens, UniProt P04626, DUP772-775, cells depend on it). Description: Cell proliferation assay (CellTiter-Glo), Ba/F3 HER2-YVMA. The following applies: read-out: Ba/F3 HER2-YVMA cell proliferation IC50. In short, it runs like this: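 Ba/F3 cells stably expressing HER2-YVMA (IL-3-independent, puromycin-selected monoclones) seeded 1,000 cells/well, 1 day before 3-fold compound dilutions; incubated 48 h, 72 h, or 48 h then fresh compound and further 72 h. Viability by CellTiter-Glo luminescence; IC50 from percent inhibition by four-parameter logistic fit, first inflexion only where applicable.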
Ba/F3 HER2-YVMA cells (HER2-A775_G776insYVMA), sequence (P04626 with tags, fused parts or gaps DUP772-775): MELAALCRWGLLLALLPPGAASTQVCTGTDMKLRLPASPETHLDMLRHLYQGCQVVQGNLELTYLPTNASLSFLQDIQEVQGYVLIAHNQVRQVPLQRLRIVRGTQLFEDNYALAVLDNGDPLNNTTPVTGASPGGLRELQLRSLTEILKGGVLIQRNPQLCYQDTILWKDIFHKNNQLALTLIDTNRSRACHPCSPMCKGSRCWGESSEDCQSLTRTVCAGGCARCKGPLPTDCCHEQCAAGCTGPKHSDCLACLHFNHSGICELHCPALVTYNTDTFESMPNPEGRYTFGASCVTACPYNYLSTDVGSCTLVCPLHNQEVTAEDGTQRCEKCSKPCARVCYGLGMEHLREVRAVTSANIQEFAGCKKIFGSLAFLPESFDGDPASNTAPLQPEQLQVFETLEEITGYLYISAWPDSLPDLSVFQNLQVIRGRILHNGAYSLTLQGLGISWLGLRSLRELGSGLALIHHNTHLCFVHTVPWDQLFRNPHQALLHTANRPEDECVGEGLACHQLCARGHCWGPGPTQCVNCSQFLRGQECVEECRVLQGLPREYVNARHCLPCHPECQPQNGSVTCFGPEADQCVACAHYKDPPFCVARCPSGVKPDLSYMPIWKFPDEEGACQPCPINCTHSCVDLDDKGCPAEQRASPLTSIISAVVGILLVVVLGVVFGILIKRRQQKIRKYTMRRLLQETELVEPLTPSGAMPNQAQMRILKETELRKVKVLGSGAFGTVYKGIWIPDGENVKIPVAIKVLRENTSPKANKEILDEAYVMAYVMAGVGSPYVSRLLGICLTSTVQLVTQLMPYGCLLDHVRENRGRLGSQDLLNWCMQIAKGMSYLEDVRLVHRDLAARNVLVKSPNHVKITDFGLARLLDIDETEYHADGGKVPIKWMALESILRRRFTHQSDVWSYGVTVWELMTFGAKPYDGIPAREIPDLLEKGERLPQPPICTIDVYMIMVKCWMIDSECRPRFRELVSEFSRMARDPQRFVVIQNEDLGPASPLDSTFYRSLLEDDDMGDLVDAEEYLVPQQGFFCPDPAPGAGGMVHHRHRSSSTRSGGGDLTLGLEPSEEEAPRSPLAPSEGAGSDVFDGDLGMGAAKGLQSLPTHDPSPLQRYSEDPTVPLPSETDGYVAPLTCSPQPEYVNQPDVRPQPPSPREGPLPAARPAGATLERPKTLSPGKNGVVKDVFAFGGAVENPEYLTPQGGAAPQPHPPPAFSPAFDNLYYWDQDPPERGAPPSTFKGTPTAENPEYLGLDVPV
A general note: In ATP-based viability assays light output follows the ATP content of the culture.

The subject of test [5] is NCI-H1781 cells (HER2-A775_G776insV-G776C). Description: Cell proliferation assay (CellTiter-Glo), NCI-H1781. The following applies: first inflexion of biphasic curve. As to the method:
as §2
Ba/F3 cells were plated at 1,000 cells/well (40 μL), or NCI-H1781 or A431 cells were plated at 2,000 cells/well (40 μL), in a 384-well plate for 1 day. Test compounds (40 nL) were then added in a 3-fold dilution series using the TECAN EV0200 liquid handler and incubated for 48 hours (“2 days”), 72 hours (“3 days”), or 48 hours followed by renewal of compound solutions and further incubation for 72 hours (“2 days/3 days”). The 72-hour assay was necessary for NCI-H1781 cells, which are slow-growing, and the resupply of fresh compounds on day 3 obviated the potential confounding effects arising from compound degradation in cell media over 72 hours. Plates were equilibrated at room temperature for 15 minutes followed by addition of 40 μL CellTiter-Glo reagent (Promega). Luminescence was measured on a plate reader. Half-maximal inhibitory concentration (IC50) was calculated from percent inhibition and inhibitor concentration using four-parameter logistic regression. […] In these cases, the regression curve was drawn only for the first inflexion to accurately measure on-target growth inhibitory effect.
Ba/F3, NCI-H1781, and A431 proliferation is driven by the oncogenes in the same way that cancer cell proliferation in humans is driven by the expression of equivalent oncogenes.

One may read the IC50 as the concentration at which inhibition is half-maximal. As for `C=CC(=O)N1CCC=C(c2ccc3ncnc(Nc4ccc(Oc5ccn6ncnc6c5)c(C)c4)c3n2)CC1` [Example 1, 1-(4-[4-[(3-methyl-4-[[1,2,4]triazolo[1,5-a]pyridin-7-yloxy]phenyl)amino]pyrido[3,2-d]pyrimidin-6-yl]-2,3,6,7-tetrahydroazepin-1-yl)prop-2-en-1-one], the half-inhibitory concentration (IC50) in test [1] was 100 to 500 nM; in test [2], 100 to 500 nM; in test [3], below 100 nM; in test [5], below 100 nM. Moreover, the GI50 in test [4] is below 100 nM.

As to `CC#CC(=O)N1CC=C(c2ccc3ncnc(Nc4ccc(Oc5ccn6ncnc6c5)c(C)c4)c3n2)CC1` [Example 2, 1-(4-(4-((4-([1,2,4]triazolo[1,5-a]pyridin-7-yloxy)-3-methylphenyl)amino)pyrido[3,2-d]pyrimidin-6-yl)-3,6-dihydropyridin-1(2H)-yl)but-2-yn-1-one], the 50% inhibitory concentration (IC50) was 500 to 1000 nM in test [1], 500 to 1000 nM in test [2], below 100 nM in test [3] and below 100 nM in test [5]. Also, in test [4], the GI50 was below 100 nM.

As for `C=CC(=O)N1CC=C(c2ccc3ncnc(Nc4ccc(Oc5ccn6ncnc6c5)c(C)c4F)c3n2)CC1` [Example 5], the IC50 in test [1] was at least 1000 nM; in test [2], at least 1000 nM; in test [3], below 100 nM; in test [5], 100 to 500 nM. Also, the GI50 in test [4] is below 100 nM.

As for `C=CC(=O)N1CCN(c2ccc3ncnc(Nc4ccc(Oc5ccn6ncnc6c5)c(C)c4)c3n2)CC1` [Example 9], the half-maximal inhibitory concentration (IC50) is 500 to 1000 nM in test [1], 100 to 500 nM in test [2], below 100 nM in test [3] and below 100 nM in test [5]. For the same compound, the GI50 in test [4] was below 100 nM.

Regarding `C=CC(=O)N1CC=C(c2ccc3ncnc(Nc4ccc(Oc5ccn6ncnc6c5)c(C)c4)c3n2)CC1` [Example 12], the IC50 was 500 to 1000 nM in test [1], 500 to 1000 nM in test [2], below 100 nM in test [3] and below 100 nM in test [5]. In addition, the GI50 in test [4] is below 100 nM.

Take `Cc1cc(Nc2ncnc3ccc(C4=CCN(C(=O)/C=C/CN(C)C)CC4)nc23)ccc1Oc1ccn2ncnc2c1` [Example 13]: the half-maximal inhibitory concentration (IC50) in test [1] was at least 1000 nM; in test [2] it was 100 to 500 nM; in test [3], below 100 nM; in test [5], below 100 nM. In test [4], the GI50 was below 100 nM.

As to `C=CC(=O)N1CCCN(c2ccc3ncnc(Nc4ccc(Oc5ccn6ncnc6c5)c(C)c4)c3n2)CC1` [Example 14], the IC50 in test [1] was at least 1000 nM; in test [2], at least 1000 nM; in test [3], below 100 nM. Further, in test [4], the GI50 lay within 100 to 500 nM.

As for `C=CC(=O)N1CC=C(c2ncc3ncnc(Nc4ccc(Oc5ccn6ncnc6c5)c(C)c4)c3n2)CC1` [Example 18], the IC50 in test [1] is 500 to 1000 nM; in test [2], 500 to 1000 nM; in test [3], below 100 nM; in test [5] it was below 100 nM. Besides, in test [4], the GI50 is below 100 nM.

For the compound `C=CC(=O)N1CC=C(c2ccc3ncnc(Nc4ccc(Oc5ccn6ncnc6c5)c(C)c4)c3c2OC)CC1` [Example 19], the values for the 50% inhibitory concentration (IC50) in test [2] and in test [3] were at least 1000 nM and below 100 nM, respectively. Besides, in test [4], the GI50 was in the range of 100 to 500 nM.

With `C=CC(=O)N1CC=C(c2ccc3ncnc(Nc4ccc(Oc5ccn6ncnc6c5)c(C)c4)c3n2)C1` [Example 21], the IC50 was at least 1000 nM in test [1], at least 1000 nM in test [2], below 100 nM in test [3] and 100 to 500 nM in test [5]. The GI50 in test [4] lay within 100 to 500 nM.

Turning to `C=CC(=O)N1CC2(C1)CN(c1ccc3ncnc(Nc4ccc(Oc5ccn6ncnc6c5)c(C)c4)c3n1)C2` [Example 23], the IC50 in test [2] is at least 1000 nM; in test [3] it was below 100 nM. Besides, the GI50 in test [4] is 500 to 1000 nM.

As to `C=CC(=O)N1C[C@@H]2CC[C@H]1CN2c1ncc2ncnc(Nc3ccc(Oc4ccn5ncnc5c4)c(C)c3F)c2n1` [Example 41], the IC50 in test [1], in test [2] and in test [5] was below 100 nM in each case. For the same compound, in test [4], the GI50 was below 100 nM.

Regarding `C=CC(=O)N1CCN(c2ncc3ncnc(Nc4ccc(Oc5ccn6ncnc6c5)c(C)c4F)c3n2)[C@@H](C)C1` [Example 43], the figures for the IC50 in test [1], in test [2] and in test [5] were 100 to 500 nM, 100 to 500 nM and below 100 nM, respectively. The GI50 in test [4] was below 100 nM.

With `C=CC(=O)N1C[C@H]2CC[C@@H]1CN2c1ncc2ncnc(Nc3ccc(Oc4ccn5ncnc5c4)c(C)c3F)c2n1` [Example 45], the IC50 in test [1] was at least 1000 nM; in test [2], at least 1000 nM; in test [5] it was 100 to 500 nM. Further, the GI50 in test [4] was below 100 nM.

For the compound `C=CC(=O)N1CCN(c2ncc3ncnc(Nc4cc(C)c(Oc5ccn6ncnc6c5)cc4F)c3n2)C[C@H]1C` [Example 50], the 50% inhibitory concentration (IC50) in test [2] was at least 1000 nM; in test [3], below 100 nM; in test [5], 100 to 500 nM.

On to `C=CC(=O)N1CCN(c2ncc3ncnc(Nc4cc(C)c(Oc5cc(C)n6ncnc6c5)cc4F)c3n2)C[C@H]1C` [Example 51], for which the IC50 in test [1] is at least 1000 nM; in test [2], at least 1000 nM; in test [3], below 100 nM. The GI50 in test [4] was below 100 nM.

With `C=CC(=O)N1CCC(c2ncc3ncnc(Nc4ccc(Oc5ccn6ncnc6c5)c(C)c4F)c3n2)=C[C@H]1C` [Example 55], the half-maximal inhibitory concentration (IC50) was 100 to 500 nM in test [1], at least 1000 nM in test [2] and below 100 nM in test [3]. Also, the GI50 in test [4] is below 100 nM.

As to `C=CC(=O)N1CCC=C(c2ncc3ncnc(Nc4ccc(Oc5ccn6ncnc6c5)c(C)c4F)c3n2)CC1` [Example 56], the values for the IC50 in test [2] and in test [3] were 500 to 1000 nM and below 100 nM, respectively. Also, in test [4], the GI50 is below 100 nM.

In the case of `C=CC(=O)N1CC=C(c2ncc3ncnc(Nc4cc(C)c(Oc5ccn6ncnc6c5)cc4F)c3n2)C[C@@H]1C` [Example 59], the IC50 in test [2] is at least 1000 nM; in test [3] it was below 100 nM. For the same compound, the GI50 in test [4] fell in the range of 500 to 1000 nM.

Turning to `C=CC(=O)N1CCC(c2ncc3ncnc(Nc4ccc(Oc5ccn6ncnc6c5)c(C(F)F)c4F)c3n2)=C[C@@H]1C` [Example 60], the IC50 in test [1] was at least 1000 nM; in test [2] it was 500 to 1000 nM; in test [3] it was below 100 nM. The GI50 in test [4] is below 100 nM.

Turning to `C=CC(=O)N1CCC(c2ncc3ncnc(Nc4ccc(Oc5ccn6ncnc6c5)c(C(F)(F)F)c4F)c3n2)=C[C@@H]1C` [Example 62], the results for the half-inhibitory concentration (IC50) in test [1], in test [2] and in test [3] were at least 1000 nM, at least 1000 nM and below 100 nM, respectively. Also, the GI50 in test [4] was below 100 nM.

In the case of `C=CC(=O)N1CCN(c2ncc3ncnc(Nc4ncc(Oc5ccn6ncnc6c5)c(C)c4F)c3n2)C[C@H]1C` [Example 63], the 50% inhibitory concentration (IC50) in test [1] is at least 1000 nM; in test [2] it was at least 1000 nM; in test [3], 100 to 500 nM. Also, the GI50 in test [4] was in the range of 500 to 1000 nM.

With `C=CC(=O)N1CCN(c2ccc3ncnc(Nc4ncc(Oc5ccn6ncnc6c5)c(C)c4F)c3c2F)C[C@H]1C` [Example 64], the half-inhibitory concentration (IC50) in test [1] was at least 1000 nM; in test [2] it was at least 1000 nM; in test [3], below 100 nM. Further, in test [4], the GI50 lay in the range of 100 to 500 nM.
